Reference: BindingDB's records for patent US12187701 (Dana-Farber Cancer Institute, 2025)

Molecular target: Cyclin-dependent kinase 14 (Homo sapiens, UniProt O94921)
Assay: In vitro Kinase Assay
Protocol: Lanthascreen Eu kinase binding assays were conducted for Cdk14/CycY largely as performed in the commercial assay service by Life Technologies, but included a 30 minute pre-incubation step of the kinase with candidate compounds to facilitate covalent bond formation.

Sequence of Cyclin-dependent kinase 14 (O94921 whole entry): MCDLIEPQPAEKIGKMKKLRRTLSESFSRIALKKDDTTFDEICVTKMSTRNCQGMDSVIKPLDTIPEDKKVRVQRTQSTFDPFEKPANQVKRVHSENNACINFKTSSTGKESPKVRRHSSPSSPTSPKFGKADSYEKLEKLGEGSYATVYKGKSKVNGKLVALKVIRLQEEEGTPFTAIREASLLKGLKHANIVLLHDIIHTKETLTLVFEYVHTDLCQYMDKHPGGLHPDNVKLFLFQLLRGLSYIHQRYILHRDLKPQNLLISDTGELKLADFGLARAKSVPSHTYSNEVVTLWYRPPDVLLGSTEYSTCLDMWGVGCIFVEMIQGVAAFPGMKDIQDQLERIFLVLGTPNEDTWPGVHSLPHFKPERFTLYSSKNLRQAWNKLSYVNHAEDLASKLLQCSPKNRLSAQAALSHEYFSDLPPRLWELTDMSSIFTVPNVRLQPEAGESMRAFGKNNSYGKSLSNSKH

`CN(C)C/C=C/C(=O)Nc1cccc(CNC(=O)c2n[nH]cc2NC(=O)c2c(Cl)cccc2Cl)c1` [US12187701, Compound FMF-05-064-2] was tested, and the IC50 was 108 nM.
